Measurements: US20240158370A1, “CK1 alpha AND DUAL CK1 alpha / GSPT1 DEGRADING COMPOUNDS” (Innovo Therapeutics, Inc., priority 2022, published 2024)

Legend:
[1] = molecular target: T1, CK1α (Homo sapiens, UniProt P48729+Q96SW2); test: HiBiT degradation assay, CK1α, Procedure A; format: cell-based; conditions: six hours incubation
T1 construct: CSNK1A1-HiBit KI HEK293(LgBit) Cells; host or cells: HEK293(LgBit) knock-in cells
Method: (§1) Compounds were spotted onto Cornin 384-Well, Cell Culture-Treated, Flat-Bottom, Low Flange Microplate (Fisher Scientific, Catalog #07-201-013) using a Tecan D300e digital dispenser. Ten-point dose response curves spanning from 10 μM to 0.005 μM with a 0.1% DMSO tolerance were used.
(§2) Cells were dissociated from tissue 182 cm^2 Tissue Culture Flask (CellTreat Catalog #229351) by washing the cells with PBS (Fisher Scientific Catalog #BP3994) followed by dissociation with Trypsin-EDTA (0.25%) (Thermo Scientific Catalog #25200056). Trysin was neutralized and cells were resuspended with DMEM+10% FBS. Cells were centrifuged for 5 minutes at 1200 RPMs. Cell culture media was aspirated off and cells were resuspended with DMEM+10% FBS. Cell density was determined using a Denovix CellDrop BF cell counter. Cell density was adjusted to 1×10^6 cells/ml. 40 μl of cells was added to compound treated tissue culture plates and incubated for six hours at 37° C. After six hours, cell culture plates were removed from tissue culture incubator and cooled to room temperature. 40 μl of Nano-GloHiBiT Lytic Detection Reagent (Promega, Catalog #N3040) was added to each well. Plates were placed on an orbital shaker (600 rpm) for 20 minutes. Luminescence was measured using an Envsion plate reader (Perkin Elmer). DC50 curves and Ymin were generated using a 4-parameter curve fit with GraphPad Prism software (Prism Corporation).
(§3) Results from the HiBiT assay (DC50 (nM) and Ymin (% remaining)) are shown below. All CK1α data was generated according to Procedure A. GSPT1 data for Examples 1-600, 603-620 and 703-705 was generated according to Procedure A. GSPT1 data for Examples 601, 621-702 and 706-735 was generated according to Procedure B.

[2] = molecular target: GSPT1 (Homo sapiens, UniProt P15170+Q96SW2); test: HiBiT degradation assay, GSPT1, Procedure A; format: cell-based; parameters: HiBit-GSPT1 KI HEK293(LgBit) Cells; host or cells: HEK293(LgBit) knock-in cells; conditions: six hours incubation
Method: as §1, §2, §3

T1 sequence (P48729 whole entry): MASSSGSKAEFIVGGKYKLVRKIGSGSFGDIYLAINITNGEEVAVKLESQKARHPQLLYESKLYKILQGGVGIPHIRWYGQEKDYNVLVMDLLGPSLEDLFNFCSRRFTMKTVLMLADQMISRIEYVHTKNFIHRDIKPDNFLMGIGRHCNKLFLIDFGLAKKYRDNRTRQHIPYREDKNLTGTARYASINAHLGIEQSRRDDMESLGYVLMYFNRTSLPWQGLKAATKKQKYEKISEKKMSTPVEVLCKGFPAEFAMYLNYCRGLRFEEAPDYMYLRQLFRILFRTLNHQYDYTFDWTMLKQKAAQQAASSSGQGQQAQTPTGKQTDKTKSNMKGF
T1 sequence (Q96SW2 whole entry): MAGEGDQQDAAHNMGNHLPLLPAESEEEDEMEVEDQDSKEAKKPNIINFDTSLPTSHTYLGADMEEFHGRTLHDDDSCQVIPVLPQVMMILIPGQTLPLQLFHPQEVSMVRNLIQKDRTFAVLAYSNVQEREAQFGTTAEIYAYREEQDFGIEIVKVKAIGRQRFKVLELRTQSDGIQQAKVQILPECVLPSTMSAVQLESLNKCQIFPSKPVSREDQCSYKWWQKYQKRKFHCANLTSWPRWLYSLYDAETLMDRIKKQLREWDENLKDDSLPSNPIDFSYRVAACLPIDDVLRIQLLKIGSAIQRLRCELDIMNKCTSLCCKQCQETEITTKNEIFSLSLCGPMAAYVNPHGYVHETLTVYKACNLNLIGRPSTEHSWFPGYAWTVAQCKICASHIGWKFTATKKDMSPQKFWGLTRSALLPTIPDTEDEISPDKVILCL
T1 sequence (Q16531 whole entry partner): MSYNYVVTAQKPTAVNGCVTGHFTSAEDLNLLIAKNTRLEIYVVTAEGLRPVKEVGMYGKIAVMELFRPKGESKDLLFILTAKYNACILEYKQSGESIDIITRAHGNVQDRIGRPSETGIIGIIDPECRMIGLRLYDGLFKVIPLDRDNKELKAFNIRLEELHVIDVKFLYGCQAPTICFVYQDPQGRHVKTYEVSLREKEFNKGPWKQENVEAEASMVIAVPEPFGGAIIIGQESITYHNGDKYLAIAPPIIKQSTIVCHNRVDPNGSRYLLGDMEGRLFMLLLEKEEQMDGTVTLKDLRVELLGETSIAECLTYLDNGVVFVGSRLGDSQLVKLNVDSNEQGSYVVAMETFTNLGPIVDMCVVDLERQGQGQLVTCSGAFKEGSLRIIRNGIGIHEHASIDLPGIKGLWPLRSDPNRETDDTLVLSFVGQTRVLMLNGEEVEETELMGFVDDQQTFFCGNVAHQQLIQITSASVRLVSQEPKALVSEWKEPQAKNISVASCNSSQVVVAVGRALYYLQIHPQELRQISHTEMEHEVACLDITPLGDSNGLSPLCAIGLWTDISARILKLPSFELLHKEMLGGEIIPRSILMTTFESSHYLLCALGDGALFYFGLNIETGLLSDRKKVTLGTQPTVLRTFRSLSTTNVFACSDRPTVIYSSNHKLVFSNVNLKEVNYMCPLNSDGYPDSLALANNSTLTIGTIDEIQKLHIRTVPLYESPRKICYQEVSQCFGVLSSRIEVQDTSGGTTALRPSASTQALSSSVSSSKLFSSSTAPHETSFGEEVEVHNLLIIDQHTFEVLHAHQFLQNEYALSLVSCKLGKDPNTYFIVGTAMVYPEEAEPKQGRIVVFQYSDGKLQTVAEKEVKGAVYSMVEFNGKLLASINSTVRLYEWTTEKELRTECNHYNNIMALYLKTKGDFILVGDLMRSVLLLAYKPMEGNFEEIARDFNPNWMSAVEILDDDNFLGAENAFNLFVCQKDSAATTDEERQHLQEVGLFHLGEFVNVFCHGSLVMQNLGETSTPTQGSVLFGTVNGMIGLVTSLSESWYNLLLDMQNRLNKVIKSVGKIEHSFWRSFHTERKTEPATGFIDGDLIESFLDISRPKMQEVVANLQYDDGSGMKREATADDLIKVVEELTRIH
GSPT1, sequence (P15170 whole entry): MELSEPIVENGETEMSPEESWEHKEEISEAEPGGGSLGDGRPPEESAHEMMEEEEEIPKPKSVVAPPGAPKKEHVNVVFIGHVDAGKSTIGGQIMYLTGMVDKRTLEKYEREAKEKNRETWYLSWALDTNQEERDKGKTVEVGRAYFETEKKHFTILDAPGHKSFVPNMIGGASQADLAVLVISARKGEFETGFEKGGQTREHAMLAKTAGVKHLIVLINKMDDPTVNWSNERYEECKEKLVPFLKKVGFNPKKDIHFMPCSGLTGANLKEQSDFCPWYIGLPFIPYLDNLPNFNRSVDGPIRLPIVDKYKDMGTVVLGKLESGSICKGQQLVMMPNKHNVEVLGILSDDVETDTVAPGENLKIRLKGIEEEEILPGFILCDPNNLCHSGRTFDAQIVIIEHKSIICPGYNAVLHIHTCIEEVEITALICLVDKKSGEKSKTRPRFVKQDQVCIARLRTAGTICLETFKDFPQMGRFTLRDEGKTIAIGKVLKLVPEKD
GSPT1, sequence (Q96SW2 whole entry): as the sequence (Q96SW2 whole entry) above
GSPT1, sequence (Q16531 whole entry partner): as the sequence (Q16531 whole entry partner) above

CK1α Ymin [1] | DC50 [1] | DC50 [2] | GSPT1 Ymin [2] | Structure (SMILES)
C (C = 0-10% remaining) | < 25 nM | < 25 nM | E (E = >25-75% remaining) | CCn1cnc(-c2ccc3c(c2)CN(C2CCC(=O)NC2=O)C3=O)c1-c1ccccc1 (centres unmarked) [Example 26, 3-(5-(1-Ethyl-5-phenyl-1H-imidazol-4-yl)-1-oxoisoindolin-2-yl)piperidine-2,6-dione]
D (D = >10- 25% remaining) | < 25 nM | ≥ 25 nM | F (F = >75-100% remaining) | O=C1CCC(N2Cc3cc(-c4cnn(C(F)F)c4-c4ccccc4)ccc3C2=O)C(=O)N1 (centres unmarked) [Example 27, 3-(5-(1-(difluoromethyl)-5-phenyl-1H-pyrazol-4-yl)-1-oxoisoindolin-2-yl)piperidine-2,6-dione]
E (E = >25-75% remaining) | ≥ 25 nM | ≥ 25 nM | F (F = >75-100% remaining) | Cn1c(-c2ccc3c(c2)CN(C2CCC(=O)NC2=O)C3=O)cnc1-c1ccccc1 (centres unmarked) [Example 28, 3-(5-(1-methyl-2-phenyl-1H-imidazol-5-yl)-1-oxoisoindolin-2-yl)piperidine-2,6-dione]
F (F = >75-100% remaining) | ≥ 25 nM | ≥ 25 nM | F (F = >75-100% remaining) | Cc1noc(-c2ccccc2)c1-c1ccc2c(c1)CN(C1CCC(=O)NC1=O)C2=O (centres unmarked) [Example 29, 3-(5-(3-Methyl-5-phenylisoxazol-4-yl)-1-oxoisoindolin-2-yl)piperidine-2,6-dione]
E (E = >25-75% remaining) | ≥ 25 nM | ≥ 25 nM | F (F = >75-100% remaining) | Cc1n[nH]c(-c2ccccc2)c1-c1ccc2c(c1)CN(C1CCC(=O)NC1=O)C2=O (centres unmarked) [Example 30, 3-(5-(3-Methyl-5-phenyl-1H-pyrazol-4-yl)-1-oxoisoindolin-2-yl) piperidine-2,6-dione]
E (E = >25-75% remaining) | ≥ 25 nM | ≥ 25 nM | F (F = >75-100% remaining) | O=C1CCC(N2Cc3cc(-c4sncc4-c4ccccc4)ccc3C2=O)C(=O)N1 (centres unmarked) [Example 31, 3-(1-Oxo-5-(4-phenylisothiazol-5-yl)isoindolin-2-yl) piperidine-2,6-dione]
E (E = >25-75% remaining) | < 25 nM | ≥ 25 nM | E (E = >25-75% remaining) | O=C1CCC(N2Cc3cc(-n4nccc4-c4ccccc4)ccc3C2=O)C(=O)N1 (centres unmarked) [Example 33, 3-(1-Oxo-5-(5-phenyl-1H-pyrazol-1-yl)isoindolin-2-yl)piperidine-2,6-dione]
F (F = >75-100% remaining) | ≥ 25 nM | ≥ 25 nM | F (F = >75-100% remaining) | Cn1nc(-c2ccccc2)cc1-c1ccc2c(c1)CN(C1CCC(=O)NC1=O)C2=O (centres unmarked) [Example 35, 3-(5-(1-Methyl-3-phenyl-1H-pyrazol-5-yl)-1-oxoisoindolin-2-yl)piperidine-2,6-dione]
E (E = >25-75% remaining) | ≥ 25 nM | ≥ 25 nM | F (F = >75-100% remaining) | O=C1CCC(N2Cc3cc(-c4c[nH]nc4-c4ccncc4)ccc3C2=O)C(=O)N1 (centres unmarked) [Example 38, 3-(1-Oxo-5-(3-(pyridin-4-yl)-1H-pyrazol-4-yl)isoindolin-2-yl)piperidine-2,6-dione]
E (E = >25-75% remaining) | < 25 nM | ≥ 25 nM | F (F = >75-100% remaining) | O=C1CCC(N2Cc3cc(-c4nc(-c5ccccc5)co4)ccc3C2=O)C(=O)N1 (centres unmarked) [Example 42, 3-(1-Oxo-5-(4-phenyloxazol-2-yl)isoindolin-2-yl)piperidine-2,6-dione]
C (C = 0-10% remaining) | < 25 nM | ≥ 25 nM | F (F = >75-100% remaining) | Cn1c(C2CC2)nc(-c2ccc3c(c2)CN(C2CCC(=O)NC2=O)C3=O)c1-c1cccnc1 (centres unmarked) [Example 44, 3-(5-(2-Cyclopropyl-1-methyl-5-(pyridin-3-yl)-1H-imidazol-4-yl)-1-oxoisoindolin-2-yl)piperidine-2,6-dione]
